Laboratory results reported in patent publication US7657076B2, “Characterizing biological stimuli by response curves” (Cytokinetics, Inc., priority 2001, dated 2010).

Tests used:
[1] = system: HUVEC, A498, A548, SF268, SKOV3, and DU145; test: Multivariate quantitative phenotype dose response by image analysis (tubulin feature); assay type: cell-based, human
Source text: As indicated, phenotypic vectors for given stimuli and level combinations may include multivariate information taken from different cell lines. However, this need not be the case, as all the multivariate data of interest may be obtained from a single cell line. Generally, a researcher will chose one or a range of cell lines that are relevant to the area of interest. For example, if the researcher focuses on oncology applications, the cell lines chosen may include different types of cancers and possibly other cells lines that allow one to identify typical side effects of anti cancer drugs. In one specific embodiment pertaining to oncology, six different cell lines are considered. These include HUVEC (human umbilical vein endothelial cells), A498, A548, SF268, SKOV3, and DU145.
In a more specific embodiment, the parameter set for each dose/compound point in a response path includes parameters derived from DNA markers, Golgi markers, and tubulin markers. […] The size of the nuclei as derived from a DNA marker. […]
The data points are presented within the first three principal components obtained for the entire data set. […] The specific features and cell lines used to construct the quantitative phenotypes shown as points in the plot are set forth above in the “Multivariate Phenotypic Data from Images” and “Selecting Experiments for Providing Response Paths” sections. […]

microtubule assembly = conditions: review of the literature; cited from earlier work

In the case of `C=C1[C@@H](C)[C@H]2[C@H](Cc3ccccc3)NC(=O)[C@]23OC(=O)/C=C/C(=O)CCC[C@@H](C)C/C=C/[C@H]3[C@@H]1O` [Cytochalasin A], the “change in tubulin biological features with increasing concentration” value ([1]; all cell lines, eight concentrations) is given as “lack of an increase in the tubulin features”, the “affinity of the microtubule side effect compared with affinity for actin” value ([1]; inferred from common PCA trajectory at lower concentrations) is given as “lower affinity” and the “effect on microtubule assembly” value (microtubule assembly) is given as “interferes with microtubule assembly by reacting with sulfhydryl groups”.
